Results on 15 compounds are retold here after patent publication EP4737445A1, “NOVEL SATURATED HETEROCYCLE-SUBSTITUTED HETEROARYL-CARBONOHYDRAZONOYL DICYANIDE COMPOUND AND USE THEREOF” (Korea Institute of Science and Technology, priority 2023, dated 2025).

Where two headings read alike, the source gives them in different places.

Type in all cases: cell-based
One series concerns Tau-BiFC cells. The experiment in a line: Cell viability (stained nuclei count) in Tau-BiFC cells. On the procedure: (§1) To screen for new tau aggregation inhibitors, a Tau-BiFC cell model that facilitates observation of tau oligomer formation in living cells was used. Tau-BiFC cells were dispensed into a 384-well plate, and the next day, the compounds prepared according to Examples 1 to 46 were treated at concentrations of 1, 3, and 10 µM, respectively, together with Forskolin (treatment concentration 30 µM), which is a compound that induces tau aggregation by activating the tau phosphorylation enzyme PKA. After 48 hours, nuclei within cells were stained using Hoechst (treatment concentration 2 µg/mL), and BiFC fluorescence intensity was automatically quantified using Operetta (Perkin Elmer) to count the stained nuclei in each well from the entire plate. The group treated only with Forskolin, which induces tau aggregation, was set as the reference point with 100% tau aggregation state, and the effect was confirmed by the formula "BiFC fluorescence intensity by the compounds synthesized according to the Examples of the disclosure/(fluorescence intensity of the control group treated only with Forskolin that induces tau aggregation - fluorescence intensity of the untreated control group) × 100". In addition, the degree of cytotoxicity induced by the newly synthesized compounds was also calculated using the formula "(number of stained nuclei in the compound-treated group/number of stained nuclei in the Forskolin-treated group) × 100", with the group treated only with Forskolin as the reference point at 100% viability. From the treatment results, substances that inhibit intracellular tau aggregation were identified through screening from a series of candidates based on the criteria of 70% or more tau aggregation inhibition and 100% cell viability at a compound treatment concentration of 10 µM.
(§2) To confirm the tau aggregation inhibitory effect according to the concentration of the compounds screened in Experimental Example 1, the screened compounds were treated to Tau-BiFC cells at concentrations of 0.03, 0.1, 0.3, 1, 3, 10, and 30 µM, respectively, together with Forskolin (treatment concentration 30 µM), which is a tau aggregation-inducing substance. After 48 hours, cell images were examined to analyze the tau aggregation reaction and degree of cytotoxicity. The IC50 and toxicity of the compounds were analyzed by nonlinear regression analysis using Prism software (GraphPad). The calculated results for representative compounds are shown in Table 3 below: Tau aggregation inhibitory effect and cell viability of novel compounds.

A further series concerns the target T1, Tau (Homo sapiens, UniProt P10636).
T1 construct: BiFC fluorescent-protein fragments (two complementary halves on two tau copies); expressed in transfected cells
Description: Tau aggregation inhibition in Tau-BiFC cell model (Forskolin-induced). The method, then: as §1, §2

Another series deals with TDP-43 BiFC cells. The experiment in a line: Cell viability (stained nuclei count) in TDP-43-BiFC cells. To be noted: Forskolin-only group = 100%. The method, then: (§3) To screen for new TDP-43 aggregation inhibitors, a TDP-43-BiFC cell model that facilitates observation of TDP-43 aggregate formation in living cells was used. Specifically, TDP-43-BiFC cells were dispensed into a 384-well plate, and the next day, the compounds prepared according to Examples 1 to 46 were treated at concentrations of 3 and 10 µM, respectively, together with Forskolin (treatment concentration 30 µM), which is a compound that induces TDP-43 aggregation by activating the phosphorylation enzyme PKA. After 48 hours, nuclei within cells were stained using Hoechst (treatment concentration 1 µg/mL), and BiFC fluorescence intensity was automatically quantified using Operetta (PerkinElmer) to count the stained nuclei in each well from the entire plate. The group treated only with Forskolin, which induces TDP-43 aggregation, was set as the reference point with 100% TDP-43 aggregation state, and the effect was confirmed by the formula "(BiFC fluorescence intensity by the compounds synthesized according to the Examples of the disclosure - fluorescence intensity of the untreated control group)/(fluorescence intensity of the control group treated only with Forskolin that induces TDP-43 aggregation - fluorescence intensity of the untreated control group) × 100". In addition, the degree of cytotoxicity induced by the newly synthesized compounds was also calculated using the formula "(number of stained nuclei in the compound-treated group/number of stained nuclei in the Forskolin-treated group) × 100", with the group treated only with Forskolin as the reference point at 100% viability. From the treatment results, substances that inhibit intracellular TDP-43 aggregation were identified through screening from a series of candidates based on the criteria of 80% or more TDP-43 aggregation inhibition and 60% cell viability at a compound treatment concentration of 3 µM.
(§4) Furthermore, to confirm the TDP-43 aggregation inhibitory effect according to the concentration of the compounds screened in Experimental Example 3, the screened compounds were treated to […] at concentrations of 0.003, 0.01, 0.03, 0.1, 0.3, 1, 3, and 10 µM, respectively, together with Forskolin (treatment concentration 30 µM), which is a TDP-43 aggregation-inducing substance. After 48 hours, cell images were examined to analyze the TDP-43 aggregation reaction and degree of cytotoxicity. The IC50 and toxicity of the compounds were analyzed by nonlinear regression analysis using Prism software (GraphPad). The calculated results for representative compounds are shown in Table 4 below: TDP-43 protein aggregation inhibitory effect and cell viability of novel compounds.

The next series concerns the target T2, TDP-43 protein (Homo sapiens, UniProt Q13148).
T2 construct: BiFC fluorescent-protein fragments (two complementary halves); expressed in transfected cells
The experiment in a line: TDP-43 aggregation inhibition in TDP-43-BiFC cell model (Forskolin-induced). The conditions noted are these: for inhibition at 3 µM: read-out: TDP-43 protein aggregation inhibitory effect: Aggregation inhibitory effect (%) (@3 uM). The method, then: as §3, §4

Setting [1] is: @10 µM, Tau-BiFC cell line, Forskolin-only group = 100%.
Where [2] appears, read: Tau-BiFC cell line, Forskolin 30 µM, 48 hours, 0.03-30 µM, read-out: Tau aggregation inhibitory effect IC50.
Where [3] appears, read: @3 uM, TDP-43 BiFC cells, Forskolin 30 µM, 48 hours.

A word on the IC50: it is the concentration at which inhibition is half-maximal.

T2 sequence (Q13148 whole entry, the tested form may be a part): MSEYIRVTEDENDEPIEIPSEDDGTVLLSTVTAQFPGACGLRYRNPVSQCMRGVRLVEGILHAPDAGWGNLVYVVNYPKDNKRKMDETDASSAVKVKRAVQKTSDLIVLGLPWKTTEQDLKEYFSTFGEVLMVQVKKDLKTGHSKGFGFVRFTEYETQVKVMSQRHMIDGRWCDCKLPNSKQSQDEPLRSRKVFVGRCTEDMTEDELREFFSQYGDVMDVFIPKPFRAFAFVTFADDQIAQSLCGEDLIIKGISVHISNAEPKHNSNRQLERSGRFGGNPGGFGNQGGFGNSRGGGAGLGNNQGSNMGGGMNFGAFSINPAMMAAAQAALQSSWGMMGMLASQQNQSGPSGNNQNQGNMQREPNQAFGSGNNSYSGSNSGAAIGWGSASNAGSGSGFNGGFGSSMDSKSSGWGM
T1 sequence (P10636 1-441 isoform P10636-8): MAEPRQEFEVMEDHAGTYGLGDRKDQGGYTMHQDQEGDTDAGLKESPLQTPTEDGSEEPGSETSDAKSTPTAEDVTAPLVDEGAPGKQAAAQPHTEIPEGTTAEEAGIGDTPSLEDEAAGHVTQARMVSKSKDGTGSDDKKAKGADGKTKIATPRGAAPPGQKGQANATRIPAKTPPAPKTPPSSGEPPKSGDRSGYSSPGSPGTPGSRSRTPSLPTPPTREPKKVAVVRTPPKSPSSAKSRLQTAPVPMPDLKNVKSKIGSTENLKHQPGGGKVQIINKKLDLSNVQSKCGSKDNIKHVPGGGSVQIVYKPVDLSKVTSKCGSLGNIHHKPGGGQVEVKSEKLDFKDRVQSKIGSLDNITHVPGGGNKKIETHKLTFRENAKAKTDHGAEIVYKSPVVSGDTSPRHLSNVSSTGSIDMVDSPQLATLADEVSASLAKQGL

With `N#CC(C#N)=NNc1ccc2nc(-c3ccccc3)sc2c1` [Comparative compound 2, N-(2-phenylbenzo[d]thiazol-6-yl) carbonohydrazonoyl dicyanide, reference compound], the “Cell viability (% @10µM)” value in the series on Tau-BiFC cells (setting [1]) is given as 65%. At Tau, half-maximal inhibition (IC50) required 2800 nM.
Turning to `N#CC(C#N)=NNc1ccc2nc(-c3ccc(F)cc3)sc2c1` [Comparative compound 3, N-(2-(4-fluorophenyl)benzo[d]thiazol-6-yl) carbonohydrazonoyl dicyanide, reference compound], the “Cell viability (% @10µM)” value in the series with Tau-BiFC cells (setting [1]) came to 50%. In addition, on Tau, the concentration for half-maximal inhibition (IC50) is 3200 nM.
In the case of `CN(C)c1ccc(-c2nc3ccc(NN=C(C#N)C#N)cc3s2)cc1` [Comparative compound 4, N-(2-(4-(dimethylamino)phenyl)benzo[d]thiazol-6-yl) carbonohydrazonoyl dicyanide, reference compound], in the series on Tau-BiFC cells (setting [1]), the “Cell viability (% @10µM)” value was 80%. Besides, at Tau (setting [2]), the IC50 turned out to be 3100 nM.
Regarding `N#CC(C#N)=NNc1ccc2nc(-c3cccs3)sc2c1` [Comparative compound 5, N-(2-(thiophen-2-yl)benzo[d]thiazol-6-yl) carbonohydrazonoyl dicyanide, reference compound], the “Cell viability (% @10µM)” value with Tau-BiFC cells (setting [1]) was 70%. This compound registered an IC50 at Tau of 7300 nM.
For `N#CC(C#N)=NNc1cc2oc(N3CCOCC3)nc2cc1Cl` [Compound 19, (5-chloro-2-morpholinobenzo[d]oxazol-6-yl)carbonohydrazonoyl dicyanide], the “Cell viability (%) (@ 3 uM)” value in the series on TDP-43 BiFC cells was 97.0%. Besides, in the series with Tau-BiFC cells (setting [1]), the “Cell viability (% @10µM)” value is recorded as 100%. Moreover, on TDP-43 protein, the inhibition at 3 µM is 92.6%. The IC50 against Tau worked out at 453 nM.
On to `CC(C)(C)OC(=O)N1CCN(c2nc3ccc(NN=C(C#N)C#N)cc3s2)CC1` [Compound 22, tert-butyl 4-(6-(2-(dicyanomethylene)hydrazinyl)benzo[d]thiazol-2-yl)piperazine-1-carboxylate], for which the “Cell viability (%) (@ 3 uM)” value with TDP-43 BiFC cells is reported as 130.7%. Besides, the inhibition at 3 µM on TDP-43 protein (setting [3]) was found to be 66.5%.
Consider `C[C@@H]1CN(c2nc3ccc(NN=C(C#N)C#N)cc3s2)C[C@H](C)N1C(=O)OC(C)(C)C` [Compound 29, (2R,6S)-tert-butyl 4-(6-(2-(dicyanomethylene)hydrazinyl)benzo[d]thiazol-2-yl)-2,6-dimethylpiperazine-1-carboxylate], for which the “Cell viability (%) (@ 3 uM)” value in the series with TDP-43 BiFC cells is 96.2%. Further, in the series with Tau-BiFC cells (48 h, 10 µM), the “Cell viability (% @10µM)” value is on record as 97%. For the same compound, on TDP-43 protein (setting [3]), the inhibition at 3 µM was 47.2%. For the same compound, at Tau (setting [2]), the half-maximal inhibitory concentration (IC50) amounted to 36 nM.
As to `CN(N=C(C#N)C#N)c1ccc2nc(N3C4CCC3COC4)sc2c1` [Compound 36, (2-(3-oxa-8-azabicyclo[3.2.1]octan-8-yl)benzo[d]thiazol-6-yl)(methyl)carbonohydrazonoyl dicyanide], the “Cell viability (% @10µM)” value with Tau-BiFC cells (setting [1]) is 97%. Inhibition against Tau was half-maximal at 136 nM (IC50).
Regarding `CC(=O)N(N=C(C#N)C#N)c1ccc2nc(N3CCOCC3)sc2c1` [Compound 37, acetyl(2-morpholinobenzo[d]thiazol-6-yl)carbonohydrazonoyl dicyanide], the “Cell viability (%) (@ 3 uM)” value in the series on TDP-43 BiFC cells worked out at 61.3%. Further, the “Cell viability (% @10µM)” value in the series with Tau-BiFC cells (setting [1]) is reported as 85%. In addition, on TDP-43 protein, the IC50 worked out at 0.7 nM and the inhibition at 3 µM was determined as 91.2%. For the same compound, half-maximal inhibition at Tau (IC50) required 24 nM.
As for `N#CC(C#N)=NNc1ccc2nc(N3CCC[C@H](F)C3)oc2c1` [Compound 42, (S)-(2-(3-fluoropiperidin-1-yl)benzo[d]oxazol-6-yl)carbonohydrazonoyl dicyanide], the “Cell viability (%) (@ 3 uM)” value in the series with TDP-43 BiFC cells is given as 62.4%. In addition, the “Cell viability (% @10µM)” value in the series with Tau-BiFC cells (setting [1]) was determined as 100%. The inhibition at 3 µM on TDP-43 protein was determined as 64.7%. On Tau, this compound had an IC50 of 20 nM.
Regarding `N#CC(C#N)=NNc1ccc2nc(N3CC[C@H](F)C3)oc2c1` [Compound 43, (S)-(2-(3-fluoropyrrolidin-1-yl)benzo[d]oxazol-6-yl)carbonohydrazonoyl dicyanide], in the series with TDP-43 BiFC cells, the “Cell viability (%) (@ 3 uM)” value stood at 89.0%. In addition, the “Cell viability (% @10µM)” value with Tau-BiFC cells (setting [1]) was determined as 100%. Also, the inhibition at 3 µM at TDP-43 protein was 92.9%. At Tau (read-out: Tau aggregation inhibitory effect IC50, Tau-BiFC cell line, Forskolin 30 µM, 48 hours, 0.03-30 µM), the IC50 is 28 nM.
For the compound `N#CC(C#N)=NNc1ccc2nc(N3CCCC(F)C3)oc2c1` (stereo not shown) [Compound 44, (2-(3-fluoropiperidin-1-yl)benzo[d]oxazol-6-yl)carbonohydrazonoyl dicyanide], in the series on TDP-43 BiFC cells, the “Cell viability (%) (@ 3 uM)” value was determined as 85.0%. Besides, the “Cell viability (% @10µM)” value in the series with Tau-BiFC cells (setting [1]) came to 100%. In addition, on TDP-43 protein, the inhibition at 3 µM amounted to 71.1%. Moreover, half-maximal inhibition against Tau (IC50) was put at 12 nM.
On to `N#CC(C#N)=NNc1ccc2nc(N3CCCC3)oc2c1` [Compound 45, (2-(pyrrolidin-1-yl)benzo[d]oxazol-6-yl)carbonohydrazonoyl dicyanide], for which the “Cell viability (%) (@ 3 uM)” value with TDP-43 BiFC cells is 73.6%. In addition, in the series on Tau-BiFC cells (setting [1]), the “Cell viability (% @10µM)” value was 98%. Besides, at TDP-43 protein, the IC50 is 371 nM and the inhibition at 3 µM was 81.1%. This compound had an IC50 against Tau of 4 nM.
On to `N#CC(C#N)=NNc1ccc2nc(N3CCCCC3)oc2c1` [Compound 46, (2-(piperidin-1-yl)benzo[d]oxazol-6-yl)carbonohydrazonoyl dicyanide], for which the “Cell viability (%) (@ 3 uM)” value in the series with TDP-43 BiFC cells was 73.6%. Also, in the series with Tau-BiFC cells (setting [1]), the “Cell viability (% @10µM)” value came out at 100%. Moreover, the IC50 at TDP-43 protein stood at 320 nM; at Tau, 16 nM. In addition, at TDP-43 protein, the inhibition at 3 µM is 81.4%.
Turning to `N#CC(C#N)=NNc1ccc2nc(N3CCC[C@@H](F)C3)oc2c1` [Compound 47, (R)-N-(2-(3-fluoropiperidin-1-yl)benzo[d]oxazol-6-yl)carbonohydrazonoyl dicyanide], the “Cell viability (% @10µM)” value with Tau-BiFC cells (setting [1]) came out at 100%. On Tau, 117 nM corresponded to half-maximal inhibition (IC50).
